Values of other authors as cited in patent US6919335B2, “Heterocycles that are inhibitors of IMPDH enzyme” (Bristol-Myers Squibb Co., priority 2000, dated 2005).
Where two headings read alike, the source gives them in different places.

Key:
[1] = system: proinflammatory cytokines (IL-2, IL-4, and IFN); details: RT-PCR; Rol 10^−7 M, MPA 10^−8 M, or the combination
[2] = system: antigen-specific T lymphocyte responses; details: for % inhibition of proliferation: Rol plus MPA; for synergistic effect on inhibition of antigen-induced proliferation: in combination with Rol 10^−7 M; for approximate IC10: inhibition of antigen-induced proliferation
IMPDH types I and II = details: RT-PCR, low and high concentrations, alone or both

SMILES | downregulation in the generation of proinflammatory cytokines [1] | % inhibition of proliferation ([2]; with deoxyguanosine (antagonist of MPA on IMPDH), p<0.05) [%] | % inhibition of proliferation ([2]; without deoxyguanosine) [%] | synergistic effect on inhibition of antigen-induced proliferation [2] | gene expression for IMPDH types I and II (IMPDH types I and II) | approximate IC10 [2]
COc1c(C)c2c(c(O)c1C/C=C(\C)CCC(=O)O)C(=O)OC2 [MPA, mycophenolic acid] | no significant downregulation | 35±12 | 81±16 | marked synergistic effect | remained unaffected | 
CCCC(=O)Nc1ncnc2c1ncn2[C@@H]1O[C@@H]2COP(=O)(O)O[C@H]2[C@H]1OC(=O)CCC [dibuteryl-cAMP] |  |  |  |  |  | ~2e-06 M
COc1ccc(C2CNC(=O)C2)cc1OC1CCCC1 (stereo not shown) [rolipram, 4-[3-(cyclopentyloxy)-4-methoxy-phenyl]-2-pyrrolidinone] | no significant downregulation |  |  |  | remained unaffected | ~10^−7 M
C=CC[C@@H]1/C=C(\C)C[C@H](C)C[C@H](OC)[C@H]2O[C@@](O)(C(=O)C(=O)N3CCCC[C@H]3C(=O)O[C@H](/C(C)=C/[C@@H]3CC[C@@H](O)[C@H](OC)C3)[C@H](C)[C@@H](O)CC1=O)[C@H](C)C[C@@H]2OC [tacrolimus] |  |  |  | little or no synergistic effect |  | 
